Laboratory results: US20050112163A1, “PEST CONTROLLER AMD METHOD FOR CONTROLLING PESTS THEREWITH” (priority 2002, published 2005)

Assay: Vapor pressure by Donovan method
Format: physicochemical
Conditions: at 25° C. by Donovan method
Description: Donovan method is a method reported by a person in New method for estimating vapor pressure by the use of gas chromatography: Journal of Chromatography A. 749, pp. 123-129 (1996).
Test pest controllers (a) and (b) were made by the pest controller 1 shown in FIG. 2 with chemical substance 22 containing compound (A) (2,3,5,6-tetrafluoro-4-methoxymethylbenzyl 3-(1-propenyl)-2,2-dimethylcyclopropanecarboxylate, the vapor pressure at 25° C. by Donovan method: 1.4×10^−5 mmHg) as an active ingredient.

## CC=CC1C(C(=O)OCc2c(F)c(F)c(COC)c(F)c2F)C1(C)C (stereo not shown) [compound (A), 2,3,5,6-tetrafluoro-4-methoxymethylbenzyl 3-(1-propenyl)-2,2-dimethylcyclopropanecarboxylate]
  vapor pressure: 1.4×10^−5 mmHg
